Assay results from patent US8828931B2, “Bifunctional molecules for inhibiting HIV entry” (priority 2008, dated 2014).
Where two headings read alike, the source gives them in different places. No end group written: not given here.

Assays:
HIV-1 IIIB (B, X4) = system: HIV-1 IIIB (B, X4)
Method: The inhibitory activity of the bifunctional molecule on HIV-1 IIIB infection was determined by ELISA for p24 production (Jiang S et al. J Exp Med 174:1557-1563, 1991). Briefly, MT-2 cells were infected with HIV-1IIIB at 100 TCID50 (50% tissue culture infective dose) in RPMI 1640 medium containing 10% FBS in the presence or absence of an antigen specific antiserum or IgG antibody in serial 2-fold dilutions at 37° C. overnight. The culture supernatants were then removed and fresh media were added. On day 4 post-infection, the culture supernatants were collected and mixed with equal volumes of 5% Triton X-100 for the detection in the p24 protein ELISA.

[1] = system: HIV-1 IIIB-mediated cell fusion (H9/HIV-1 IIIB effector cells, MT-2 target cells); conditions: H9/HIV-1 IIIB and MT-2 cells, dye transfer
Method: HIV-1-mediated cell-cell fusion was determined by a dye transfer assay (Lu H et al. J Virol Methods 107:155-161, 2003) using Calcein AM-labeled HIV-1IIIB chronically infected H9 (H9/HIV-1 IIIB) cells as effector cells and MT-2 cells as target cells.

[2] = In vitro stability in human serum, residual activity by cell-cell fusion inhibition assay; conditions: 16 μM, 37° C., 100% human serum
Source text: (§1) Samples were collected at different intervals and tested for the residual concentrations of the active component using cell-cell fusion inhibition assay as described above.

[3] = In vitro stability in PBMC culture, residual activity by cell-cell fusion inhibition assay; conditions: 16 μM, 37° C.
Source text: as §1

NL4-3V38A/N42G = system: NL4-3V38A/N42G
Method: Briefly, 2×10^5 or 5×10^5 CEMx174 5.25M7 cells were infected with HIV-1 or HIV-2, respectively, at 100 TCID50 (50% tissue culture infective dose) in RPMI 1640 medium containing 10% FBS in the absence or presence of an antisera or purified IgG antibodies at graded concentrations overnight. On the fourth day post-infection, cells were harvested and lysed using a lysis buffer (Promega, Madison, Wis.). The luciferase activity was measured by Ultra 384 luminometer reader (Tecan) and the percent inhibition was calculated.

proteinase K = proteinase K (Parengyodontium album, UniProt P06873); test: Resistance to proteolysis by proteinase K; conditions: 4 μM in PBS, immobilized proteinase K 0.1 unit/ml, 37° C.
proteinase K, sequence (P06873 106-384): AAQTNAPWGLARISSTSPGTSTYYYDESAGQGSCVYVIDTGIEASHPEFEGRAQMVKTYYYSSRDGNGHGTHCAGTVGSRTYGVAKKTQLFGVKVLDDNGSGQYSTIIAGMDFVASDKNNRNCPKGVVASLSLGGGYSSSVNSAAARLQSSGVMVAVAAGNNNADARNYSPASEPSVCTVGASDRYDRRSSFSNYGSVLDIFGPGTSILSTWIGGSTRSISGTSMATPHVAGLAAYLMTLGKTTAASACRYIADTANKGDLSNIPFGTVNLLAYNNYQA

92US657 (B, R5) = assay type: cell-based, HIV-1
Method: (§2) Briefly, the peripheral blood mononuclear cells (PBMCs) were isolated from the blood of healthy donors using a standard density gradient (Histopaque-1077, Sigma) centrifugation. After incubation at 37° C. for 2 hr, the nonadherent cells were collected and resuspended at 5×10^5/ml in RPMI 1640 medium containing 10% FBS, 5 μg of phytohemagglutinin (PHA)/ml, and 100 U of IL-2/ml, followed by incubation at 37° C. for 3 days. The PHA-stimulated cells were infected with the corresponding primary HIV-1 isolates at a multiplicity of infection (MOI) of 0.01 in the absence or presence of antisera at a serial 2-fold dilution. The supernatants were collected 7 days post-infection and tested for p24 antigen by ELISA as described above. The IC50 was calculated using the CalcuSyn
(§3) software as described above.

93IN101 (B, R5) = assay type: cell-based, HIV-1
Method: as §2, §3

Substance	IC50 (HIV-1 IIIB (B, X4); read-out: IC50, HIV-1 replication, IIIB (B, X4), MT-2 cells, p24)	IC90 (HIV-1 IIIB (B, X4); read-out: IC90, HIV-1 replication, IIIB (B, X4), MT-2 cells, p24)	IC50 ([1]; read-out: IC50, concentration for inhibiting HIV-1 IIIB-mediated cell fusion)	IC90 ([1]; read-out: IC90, concentration for inhibiting HIV-1 IIIB-mediated cell fusion)	residual activity in human serum after 6 days [2]	time after which activity began to be lost in PBMC ([3]; PBMC in RPMI1640 with 10% FBS)	activity lost in PBMC after 6 days incubation ([3]; PBMC, 6 days)	inhibition of infection by T20-resistant strain (NL4-3V38A/N42G; concentration up to 2,000 nM)	IC50 (NL4-3V38A/N42G; read-out: IC50, HIV-1 replication, NL4-3V38A/N42G, T20-resistant HIV-1 strain, luciferase)	IC90 (NL4-3V38A/N42G; read-out: IC90, HIV-1 replication, NL4-3V38A/N42G, T20-resistant HIV-1 strain, luciferase)	IC50 (HIV-1 IIIB (B, X4); IIIB (B, X4))	IC90 (HIV-1 IIIB (B, X4); IIIB (B, X4))	treatment time with proteinase K after which activity was totally lost (proteinase K)	IC50 (92US657 (B, R5))	IC90 (92US657 (B, R5))	IC50 (93IN101 (B, R5))	IC90 (93IN101 (B, R5))
TTWMAWDREINNYTSLIHSLIRRSQNQQEKNEQELLELDKWASLLWNWF [T1144-C10]	> 250 nM	> 250 nM	–	–	–	–	–	–	–	–	–	–	–	–	–	–	–
enfuvirtide	–	–	15.9 nM	25.4 nM	5%	> 2 days	> 90%	no inhibition	> 2000 nM	> 2000 nM	68.1 nM	211 nM	5 min	1.7 nM	13 nM	2.7 nM	6.5 nM
